The values below come from patent US20250235462A1, “NOVEL CAPSID ASSEMBLY INHIBITORS” (AM SCIENCES INC, priority 2021, published 2025).

Assay [1] concerns intracellular HBV DNA. The experiment in a line: Real-time PCR for intracellular HBV DNA in HepAD38 cells. Format: cell-based, hepatitis B virus (HBV). The settings on record: treated for 65 hours, intracellular HBV DNA by real-time PCR. On the procedure: HepAD38 cells were cultured in DMEM medium (Welgene) supplemented with 200 unit/mL penicillin, 200 μg/mL streptomycin, and 10% FBS. During maintenance and passage, the cells were cultured together with 0.4 μg/mL tetracycline. Two days before the treatment with compounds for inducing HBV replication was started, the medium was replaced with a tetracycline-free complete growth medium. […]
HepAD38 cells were treated with a compound for 65 hours and then recovered, and intracellular HBV DNA was extracted therefrom according to the protocol in the DNeasy Blood & Tissue Kit (Qiagen). The primers and probes used to quantify HBV DNA were 5′-[…]-3′, 5′-[…]-3′, and 5′-/56-FAM/TGT CCT GGT/ZEN/[…]/3IABKFQ/-3′. The HBV DNA was amplified by real-time PCR assay using LightCycler 480 (Roche) (J. Virol., 2018, 92(16):e00339-18). All of the processes were confirmed in duplicate.
In general terms: Quantitative PCR measures a nucleic acid by following its amplification.

The target in assay [2] is Protein (capsid assembly) (Hepatitis B virus genotype D subtype ayw, UniProt P03146). The experiment in a line: Protein inhibition (capsid assembly inhibition), Table 1. Format: biochemical. As to conditions: for EC50: NVR value of the same run in brackets, read-out: Protein EC50.
The mark [3] stands for this setting: Hepatitis B virus, HePAD38, 65 h.
Where [4] appears, read: @30 μM, read-out: Protein % inhibition rate (@30 μM).

“And” between values parts separate entries of the source, which are not always exact repeats. Equal entries are not always repeated. Where two headings read alike, the source gives them in different places.

Chain of Protein (capsid assembly) (P03146 whole entry): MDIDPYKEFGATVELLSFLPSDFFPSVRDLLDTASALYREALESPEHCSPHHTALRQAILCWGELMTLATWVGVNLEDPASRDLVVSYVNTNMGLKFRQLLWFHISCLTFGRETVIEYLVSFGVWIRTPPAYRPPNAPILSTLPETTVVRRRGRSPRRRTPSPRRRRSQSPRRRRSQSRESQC

As a reminder, the IC50 is the concentration that inhibits the measured activity by half. In general, inhibition refers to the drop in the measured response relative to a control, in per cent. In turn, `COc1ccc(N(Cc2nnc3n2CCCCC3)C(=O)N(C)c2ccc(F)c(Cl)c2)cc1` [Example 9, 1-(3-Chloro-4-fluorophenyl)-3-(4-methoxyphenyl)-1-methyl-3-((6,7,8,9-tetrahydro-5H-[1,2,4]triazolo[4,3-a]azepin-3-yl)methyl)urea] gave an IC50 in assay [1] (setting [3]) of 0.75 µM. Also, in assay [2] (setting [4]), the inhibition at 30 µM stood at 5%.

In assay [1] (setting [3]), `COc1ccc(N(Cc2nnc(C(C)C)n2C)C(=O)Nc2ccc(F)c(Cl)c2)cc1` [Example 29, 3-(3-Chloro-4-fluorophenyl)-1-((5-isopropyl-4-methyl-4H-1,2,4-triazol-3-yl)methyl)-1-(4-methoxyphenyl)urea] displayed a concentration for half-maximal inhibition (IC50) of more than 3.3 µM. The inhibition at 30 µM in assay [2] (setting [4]) came to 1%.

For orientation: EC50 means the concentration giving half of the maximal effect. Consider `O=C(Nc1ccc(F)c(Cl)c1)N(Cc1nnc2n1CCCCCC2)c1ccc2c(c1)OCO2` [Example 30, 1-(Benzo[d][1,3]dioxol-5-yl)-3-(3-chloro-4-fluorophenyl)-1-((5,6,7,8,9,10-hexahydro-[1,2,4]triazolo[4,3-a]azocin-3-yl)methyl)urea], for which, in assay [1] (setting [3]), half-maximal inhibition (IC50) required 0.74 µM. In addition, in assay [2] (setting [4]), the inhibition at 30 µM came to 32%. In addition, the EC50 in assay [2] came out at 3.6 µM.

In assay [1] (setting [3]), `Cn1ccc(N(Cc2nnc3n2CCCCC3)C(=O)Nc2ccc(F)c(Cl)c2)n1` [Example 35, 3-(3-Chloro-4-fluorophenyl)-1-(1-methyl-1H-pyrazol-3-yl)-1-((6,7,8,9-tetrahydro-5H-[1,2,4]triazolo[4,3-a]azepin-3-yl)methyl)urea] registered an IC50 of more than 3.3 µM. For the same compound, the inhibition at 30 µM in assay [2] (setting [4]) is 63.1%.

Take `O=C(Nc1ccccc1Cl)N(Cc1nnc2n1CCCCC2)c1ccc2c(c1)OCO2` [Example 5, 1-(Benzo[d][1,3]dioxol-5-yl)-3-(2-chlorophenyl)-1-((6,7,8,9-tetrahydro-5H-[1,2,4]triazolo[4,3-a]azepin-3-yl)methyl)urea]: in assay [1] (setting [3]), the IC50 was more than 3.3 µM. In assay [2] (setting [4]), the inhibition at 30 µM stood at 9%.

On to `Cc1cccc(NC(=O)N(Cc2nnc3n2CCCCC3)c2ccc3c(c2)OCO3)n1` [Example 20, 1-(Benzo[d][1,3]dioxol-5-yl)-3-(6-methylpyridin-2-yl)-1-((6,7,8,9-tetrahydro-5H-[1,2,4]triazolo[4,3-a]azepin-3-yl)methyl)urea], for which, in assay [1] (setting [3]), the IC50 was 0.89 µM. Besides, the inhibition at 30 µM in assay [2] (setting [4]) worked out at 3%.

Turning to `N#Cc1ccc(N(Cc2nnc3n2CCCCC3)C(=O)Nc2ccc(F)c(Cl)c2)cc1` [Example 28, 3-(3-Chloro-4-fluorophenyl)-1-(4-cyanophenyl)-1-((6,7,8,9-tetrahydro-5H-[1,2,4]triazolo[4,3-a]azepin-3-yl)methyl)urea], in assay [1] (setting [3]), the IC50 was determined as 0.604 µM. Moreover, in assay [2] (setting [4]), the inhibition at 30 µM stood at 36%. Besides, the EC50 in assay [2] was determined as 4 µM.

In the case of `O=C(Nc1cc(F)c(F)c(F)c1)c1ccc(F)c(S(=O)(=O)N2CCC(O)CC2)c1` [NVR, reference compound], in assay [1] (read-out: IC50), the IC50 was 0.4 µM. Also, the concentration for a half-maximal effect (EC50) in assay [2] was 4.1 µM and 5.2 µM and 4.9 µM and 3.9 µM and 4.8 µM.

Regarding `CNc1ccc(N(Cc2nnc3n2CCCCC3)C(=O)Nc2ccc(F)c(Cl)c2)cc1` [Example 14, 3-(3-Chloro-4-fluorophenyl)-1-(4-(methylamino)phenyl)-1-((6,7,8,9-tetrahydro-5H-[1,2,4]triazolo[4,3-a]azepin-3-yl)methyl)urea], the IC50 in assay [1] (setting [3]) was more than 0.55 µM. Also, in assay [2] (setting [4]), the inhibition at 30 µM is 92%. Further, in assay [2], the EC50 came out at 2.8 µM.

In assay [1] (setting [3]), `COc1ccc(N(Cc2nnc(C)n2C2CCCC2)C(=O)Nc2ccc(F)c(Cl)c2)cc1` [Example 32, 3-(3-Chloro-4-fluorophenyl)-1-((4-cyclopentyl-5-methyl-4H-1,2,4-triazol-3-yl)methyl)-1-(4-methoxyphenyl)urea] yielded an IC50 of 0.32 µM. For the same compound, the inhibition at 30 µM in assay [2] (setting [4]) was found to be 23%. Further, the EC50 in assay [2] amounted to 4.9 µM.

With `O=C(NC1CCCC1)N(Cc1nnc2n1CCCCC2)c1ccc2c(c1)OCO2` [Example 11, 1-(Benzo[d][1,3]dioxol-5-yl)-3-cyclopentyl-1-((6,7,8,9-tetrahydro-5H-[1,2,4]triazolo[4,3-a]azepin-3-yl)methyl)urea], in assay [1] (setting [3]), the half-inhibitory concentration (IC50) is more than 3.3 µM. The inhibition at 30 µM in assay [2] (setting [4]) came out at 4%.

Compound `O=C(Nc1ccc(F)c(Cl)c1)N(Cc1nnc2n1CCCCC2)c1ccc2[nH]ccc2c1` [Example 18, 3-(3-Chloro-4-fluorophenyl)-1-(1H-indol-5-yl)-1-((6,7,8,9-tetrahydro-5H-[1,2,4]triazolo[4,3-a]azepin-3-yl)methyl)urea] came in with a half-inhibitory concentration (IC50) in assay [1] (setting [3]) of more than 3.3 µM. For the same compound, in assay [2] (setting [4]), the inhibition at 30 µM came to 96.8%. Besides, the EC50 in assay [2] was 4.8 µM.

Take `O=C(Nc1ccc(F)c(Cl)c1)N(Cc1nnc2n1CCCCC2)c1ncco1` [Example 39, 3-(3-Chloro-4-fluorophenyl)-1-(oxazol-2-yl)-1-((6,7,8,9-tetrahydro-5H-[1,2,4]triazolo[4,3-a]azepin-3-yl)methyl)urea]: in assay [1] (setting [3]), the IC50 is more than 3.3 µM. Moreover, the inhibition at 30 µM in assay [2] (setting [4]) is 100%. The EC50 in assay [2] was found to be 5.7 µM.

In assay [1] (setting [3]), `O=C(Nc1ccc(F)c(Cl)c1)N(Cc1nnc2n1CCCCC2)c1cccc(C(F)(F)F)c1` [Example 21, 3-(3-Chloro-4-fluorophenyl)-1-((6,7,8,9-tetrahydro-5H-[1,2,4]triazolo[4,3-a]azepin-3-yl)methyl)-1-(3-(trifluoromethyl)phenyl)urea] gave an IC50 of more than 3.3 µM. The EC50 in assay [2] was 11 µM. The inhibition at 30 µM in assay [2] (read-out: Protein % inhibition rate (@30 μM), @30 μM) worked out at 4%.

As to `COc1ccc(N(Cc2nnc(C3CCCC3)n2C)C(=O)Nc2ccc(F)c(Cl)c2)cc1` [Example 31, 3-(3-Chloro-4-fluorophenyl)-1-((5-cyclopentyl-4-methyl-4H-1,2,4-triazol-3-yl)methyl)-1-(4-methoxyphenyl)urea], the IC50 in assay [1] (setting [3]) is 3.48 µM. The inhibition at 30 µM in assay [2] (setting [4]) is -4%. Moreover, the EC50 in assay [2] is 16 µM.

Regarding `O=C(Nc1ccc(F)c(Cl)c1)N(Cc1nnc2n1CCCCC2)c1ccc2cc[nH]c2c1` [Example 10, 3-(3-Chloro-4-fluorophenyl)-1-(1H-indol-6-yl)-1-((6,7,8,9-tetrahydro-5H-[1,2,4]triazolo[4,3-a]azepin-3-yl)methyl)urea], the IC50 in assay [1] (setting [3]) was more than 3.3 µM. Moreover, in assay [2] (setting [4]), the inhibition at 30 µM was determined as 85%.

The compound `COc1ccc(N(Cc2nnc3n2CCN(C(=O)OCc2ccccc2)CC3)C(=O)Nc2ccc(F)c(Cl)c2)cc1` [Example 38, Benzyl 3-((3-(3-chloro-4-fluorophenyl)-1-(4-methoxyphenyl)ureido)methyl)-8,9-dihydro-5H-[1,2,4]triazolo[4,3-d][1,4]diazepine-7(6H)-carboxylate] came in with an IC50 in assay [1] (setting [3]) of more than 3.3 µM. Further, the inhibition at 30 µM in assay [2] (setting [4]) is -1%.

With `COc1ccc(N(Cc2nnc(C)n2C2CC2)C(=O)Nc2ccc(F)c(Cl)c2)cc1` [Example 37, 3-(3-Chloro-4-fluorophenyl)-1-((4-cyclopropyl-5-methyl-4H-1,2,4-triazol-3-yl)methyl)-1-(4-methoxyphenyl)urea], the IC50 in assay [1] (setting [3]) was more than 3.3 µM. Also, the inhibition at 30 µM in assay [2] (setting [4]) came out at 84.1%.

As for `COc1ccc(N(Cc2nnc(C)n2C)C(=O)Nc2ccc(F)c(Cl)c2)cc1` [Example 15, 3-(3-Chloro-4-fluorophenyl)-1-((4,5-dimethyl-4H-1,2,4-triazol-3-yl)methyl)-1-(4-methoxyphenyl)urea], the IC50 in assay [1] (setting [3]) was more than 3.3 µM. In addition, in assay [2] (setting [4]), the inhibition at 30 µM was found to be 55.3%. In addition, the EC50 in assay [2] was 29 µM.

Take `N#Cc1cccc(N(Cc2nnc3n2CCCCC3)C(=O)Nc2ccc(F)c(Cl)c2)c1` [Example 19, 3-(3-Chloro-4-fluorophenyl)-1-(3-cyanophenyl)-1-((6,7,8,9-tetrahydro-5H-[1,2,4]triazolo[4,3-a]azepin-3-yl)methyl)urea]: the half-inhibitory concentration (IC50) in assay [1] (setting [3]) was more than 3.3 µM. In addition, the inhibition at 30 µM in assay [2] (setting [4]) worked out at 94%.

Regarding `O=C(Nc1ccc(F)c(Cl)c1)N(Cc1nnc2n1CCCCC2)C1CCCC1` [Example 6, 3-(3-Chloro-4-fluorophenyl)-1-cyclopentyl-1-((6,7,8,9-tetrahydro-5H-[1,2,4]triazolo[4,3-a]azepin-3-yl)methyl)urea], the midpoint of inhibition in assay [1] (setting [3]), the IC50, lay at 1.57 µM. Moreover, the inhibition at 30 µM in assay [2] (setting [4]) turned out to be 77%. Also, in assay [2], the 50% effective concentration (EC50) worked out at 1.2 µM.

As for `CC(C)(C)OC(=O)n1ccc2cc(N(Cc3nnc4n3CCCCC4)C(=O)Nc3ccc(F)c(Cl)c3)ccc21` [Example 17, tert-Butyl 5-(3-(3-chloro-4-fluorophenyl)-1-((6,7,8,9-tetrahydro-5H-[1,2,4]triazolo[4,3-a]azepin-3-yl)methyl)ureido)-1H-indole-1-carboxylate], the IC50 in assay [1] (setting [3]) is more than 3.3 µM. For the same compound, in assay [2] (setting [4]), the inhibition at 30 µM turned out to be 92.6%. Further, the EC50 in assay [2] came to 13 µM.

Compound `COC(=O)Cc1nnc(CN(C(=O)Nc2ccc(F)c(Cl)c2)c2ccc3c(c2)OCO3)[nH]1` [Example 45, Methyl 2-(5-((1-(benzo[d][1,3]dioxol-5-yl)-3-(3-chloro-4-fluorophenyl)ureido)methyl)-4H-1,2,4-triazol-3-yl)acetate] had an IC50 in assay [1] (setting [3]) of more than 3.3 µM. Besides, the inhibition at 30 µM in assay [2] (setting [4]) came to 6%.

`COc1ccc(N(Cc2nnc(C)n2-c2ccccc2)C(=O)Nc2ccc(F)c(Cl)c2)cc1` [Example 25, 3-(3-Chloro-4-fluorophenyl)-1-(4-methoxyphenyl)-1-((5-methyl-4-phenyl-4H-1,2,4-triazol-3-yl)methyl)urea] yielded an IC50 in assay [1] (setting [3]) of more than 3.3 µM. Moreover, in assay [2] (setting [4]), the inhibition at 30 µM is -2%.
